{"source": "patent US11464789B2", "about": "“Aminosterol compositions and methods of using the same for treating schizophrenia” (Enterin, Inc., priority 2018, dated 2022)", "key": {"[1]": {"conditions": "prior studies; systemic blood levels one thousand-fold greater than oral; cited from earlier work"}, "[2]": {"tested_on": "IPANs (intrinsic primary afferent neuron)", "conditions": "isolated bowel segment, PD mouse model; increasing frequency of propulsive peristaltic contractions; cited from earlier work"}, "[3]": {"tested_on": "mouse models of PD", "conditions": "orally administered, mice with constipation due to overexpression of human αS (West et al, manuscript in preparation); cited from earlier work"}, "[4]": {"experiment": "Pharmacokinetics of orally administered squalamine (ENT-01), Phase 2 trial", "assay_type": "in vivo, human", "conditions": "for systemic absorption following oral administration: this study, PD patients; for oral bio-availability (estimated): based on pharmacokinetic behavior of intravenously administered squalamine in prior clinical studies", "description": "PK data were collected on the 10 patients enrolled in Stage 1 and 10 patients enrolled in Stage 2 to determine the extent of systemic absorption. In Stage 1, PK data were obtained at each visit, pre-medication, at 1, 2, 4, 8 and 24 hours (Table 10). In Stage 2, PK was measured on days 1 and 6 of the randomization period pre-medication, at 1, 2, 4 and 8 hours (Table 11).\nThe mean Cmax, Tmax and T1/2 and AUC of the squalamine ion following squalamine (ENT-01) oral dosing for Stage 1 patients. The PK analyses are only approximate, as the lower limit of the validated concentration range was 10 ng/ml; most of the measured concentrations fell below that value. The mean Cmax, Tmax and T1/2 and AUC of the squalamine ion following squalamine (ENT-01) oral dosing for Stage 2 patients. The PK analyses are only approximate, as the lower limit of the validated concentration range was 0.5 ng/ml."}, "[5]": {"conditions": "dogs, prior studies; cited from earlier work"}, "[6]": {"tested_on": "patients with PD and constipation", "experiment": "CNS symptoms in Stage 2 (UPDRS, MMSE, PDHQ, BDI-II, hallucinations)", "assay_type": "in vivo, human", "conditions": "6 patients with hallucinations (5) or delusions (1) at baseline", "source_text": "(8) Beck Depression Inventory (BDI-II);\n(9) Unified Parkinson's Disease Rating Scale (UPDRS), which consists of 42 items in four subscales (Part I=Non-Motor Aspects of Experiences of Daily Living (nM-EDL) (1.1 cognitive impairment, 1.2 hallucinations and psychosis, 1.3 depressed mood, Part II=Motor Aspects of Experiences of Daily Living (M-EDL), Part III=Motor Examination, and Part IV=Motor Complications;\n(10) Mini Mental State Examination (MMSE);\n(12) The University of Miami Parkinson's Disease Hallucinations Questionnaire (UM-PDHQ); […]\nAssessments were made at baseline and at the end of the fixed dose and washout periods. Circadian system status was evaluated by continuously monitoring wrist skin temperature (Thermochron iButton DS1921H; Maxim, Dallas) following published procedures (Sarabia et al. 2008). […]"}, "[7]": {"tested_on": "patients with PD and constipation", "experiment": "Safety and adverse event profile, Phase 2 trial", "assay_type": "in vivo, human", "description": "(§1) Tolerability limits included diarrhea or vomiting.\n(§2) In Stage 2, 34 patients were evaluated."}, "[8]": {"tested_on": "patients with PD and constipation", "experiment": "Circadian rhythm of wrist skin temperature", "assay_type": "in vivo, human", "conditions": "for effect on circadian rhythm of skin temperature: oral administration, 12 patients with evaluable data", "description": "(6) I-Button Temperature Assessment. The I-Button is a small, rugged self-sufficient system that measures temperature and records the results in a protected memory section. The Thermochron I-Button DS1921H (Maxim Integrated, Dallas, Tex.) was used for skin temperature measurement. I-Buttons were programmed to sample every 10 mins., and attached to a double-sided cotton sport wrist band using Velcro, with the sensor face of the I-Button placed over the inside of the wrist, on the radial artery of the dominant hand. Subjects removed and replaced the data logger when necessary (i.e., to have a bath or shower). The value of skin temperature assessment in sleep research is that the endogenous skin warming resulting from increased skin blood flow is functionally linked to sleep propensity. From the collected data, the mesor, amplitude, acrophase (time of peak temperature), Rayleight test (an index of interdaily stability), mean waveforms are calculated);\nAssessments were made at baseline and at the end of the fixed dose and washout periods. Circadian system status was evaluated by continuously monitoring wrist skin temperature (Thermochron iButton DS1921H; Maxim, Dallas) following published procedures (Sarabia et al. 2008).\nCircadian rhythm of skin temperature was evaluable in 12 patients (i.e., those who had recordings that extended from baseline through washout). Circadian system functionality was evaluated by continuously monitoring wrist skin temperature using a temperature sensor (Thermochron iButton DS1921H; Maxim, Dallas, Tex.) (Sarabia et al. 2008). A nonparametric analysis was performed for each participant to characterize DST as previously described (Sarabia et al. 2008; Ortiz-Tudela et al. 2010).\nBriefly, this analysis includes the following parameters: (i) the inter-daily stability (the constancy of 24-hour rhythmic pattern over days, IS); (ii) intra-daily variability (rhythm fragmentation, IV); (iii) average of 10-minute intervals for the 10 hours with the minimum temperature (L10); (iv) average of 10-minute intervals for the 5 hours with the maximum temperature (M5) and the relative amplitude (RA), which was determined by the difference between M5 and L10, divided by the sum of both. Finally, the Circadian Function Index (CFI) was calculated by integrating IS, IV, and RA. Consequently, CFI is a global measure that oscillates between 0 for the absence of circadian rhythmicity and 1 for a robust circadian rhythm (Ortiz-Tudela et al. 2010)."}, "[9]": {"conditions": "mice, prior studies; cited from earlier work"}, "[10]": {"conditions": "rats, prior studies; cited from earlier work"}, "[11]": {"tested_on": "patients with PD and constipation", "experiment": "Sleep diary (total sleep time, REM-behavior disorder)", "assay_type": "in vivo, human", "conditions": "beyond 125 mg", "description": "FIG. 3 is a chart of total sleep time in relation to squalamine dose. Total sleep time was obtained from the sleep diary by subtracting awake time during the night from total time spent in bed. Total sleep time per night was logged for each patient at baseline, each dosing period and at washout, and the means were determined. The light grey bar represents the baseline value for each cohort at a given dose level and the dark grey bar represents the value for the same cohort at the stated dose of squalamine (ENT-01). The number of patients represented at each value are: Baseline, 33; 75 mg, 21; 100 mg, 28; 125 mg, 18; 150 mg, 15; 175 mg, 12; 200 mg, 7; 225 mg, 3; 250 mg, 2; washout, 33. P values were as follows: 75 mg, p=0.4; 100 mg, p=0.1; 125 mg, p=0.3; 150 mg, p=0.07; 175 mg, p=0.03; 200 mg, p=0.3; 225 mg, p=0.5; 250 mg, p=0.3; wash-out, p=0.04 (paired t test).\n(5) Sleep Diary (participants completed a sleep diary on a daily basis throughout the study. The diaries included time into bed and estimated time to sleep as well as wake time and duration during the night); […]"}, "[12]": {"tested_on": "patients with PD and constipation", "experiment": "Effect on bowel function, Phase 2 trial (Stage 1 single dose, Stage 2 daily dosing)", "assay_type": "in vivo, human", "description": "Overview: The subjects of the trial all had PD and experienced constipation, which is a characteristic of PD. The primary objectives of the trial involving patients with PD and constipation were to evaluate the safety and pharmacokinetics of oral squalamine (ENT-01) and to identify the dose required to improve bowel function, which was used as a clinical endpoint.\nENT-01 is the phosphate salt of squalamine. For this study it has been formulated as a small 25 mg coated tablet. Dosing ranged from 25 mg to 250 mg, with dosages greater than 25 mg requiring multiple pills (e.g., 50 mg=two 25 mg pills). Dosing instructions=take 60 mins before breakfast with 8 oz. water. The dose was taken by each patient upon awakening on an empty stomach along with 8 oz. of water simultaneously to dopamine. The subject was not allowed to ingest any food for at least 60 minutes after study medication. The compound is highly charged and will adsorb to foodstuffs, so it was administered prior to feeding.\nFollowing successful screening, all subjects underwent a 14-day run-in period where the degree of constipation was assessed through a validated daily log (Zinsmeister et al. 2013) establishing baseline CSBMs/week. Subjects with an average of <3 CSBMs/week proceeded to dosing.\nas §1, §2\nThe primary efficacy outcome variable was whether or not a subject was a “success” or “failure”. This is an endpoint based on subject diary entries for the “fixed dose” period prior to the endpoint assessment defined as average complete stool frequency increase by 1 or more over baseline, or 3 or more complete spontaneous stools/week. The subject was deemed a “success” if s/he met one or more of the criteria listed above, otherwise the subject was deemed a “failure”. The primary analysis was based on all subjects with a baseline assessment and an assessment at the end of the “fixed-dose” period and was a comparison of the proportion of successes with 0.10 (the null hypothesis corresponding to no treatment effect)."}, "[13]": {"conditions": "Stage 2, fixed dose, n = 34, weekly average"}, "[14]": {"conditions": "Stage 2, fixed dose, n = 34, weekly average, listed as aminosterol"}}, "note": "“And” between values parts separate entries of the source, which are not always exact repeats. Equal values may be shown once. “Also recorded” adds a separate entry of the source. Read-outs that look alike come from different tables or passages of the source.", "data": [{"smiles": "CC(C)[C@@H](CC[C@@H](C)[C@H]1CC[C@H]2[C@@H]3[C@H](O)C[C@H]4C[C@@H](NCCCNCCCCN)CC[C@]4(C)[C@H]3CC[C@]12C)OS(=O)(=O)O", "note": "[squalamine]", "values": [{"measurement": "gastrointestinal motility after intravenous administration", "setting": "[1]", "result": "not associated with increased gastrointestinal motility"}, {"measurement": "effect on IPANs of the ENS", "setting": "[2]", "result": "excitation of IPANs"}, {"measurement": "gastro-intestinal motility", "setting": "[3]", "result": "stimulates gastro-intestinal motility"}, {"measurement": "systemic absorption following oral administration", "setting": "[4]", "result": "not significantly absorbed into the systemic circulation"}]}, {"smiles": "CC(C)[C@@H](CC[C@@H](C)[C@H]1CC[C@H]2[C@@H]3[C@H](O)C[C@H]4C[C@@H](NCCCNCCCCN)CC[C@]4(C)[C@H]3CC[C@]12C)OS(=O)(=O)O", "note": "(single isomer, unassigned) [squalamine (ENT-01), squalamine]", "values": [{"measurement": "systemic absorption following oral administration", "setting": "[5]", "result": "negligible"}, {"measurement": "patients in whom hallucinations and delusions improved or disappeared during treatment", "setting": "[6]", "result": "improved or disappeared during treatment in five"}, {"measurement": "patients in whom hallucinations and delusions improved or disappeared during treatment", "setting": "[6]; listed as aminosterol", "result": "improved or disappeared during treatment in five"}, {"measurement": "Diarrhea, Mild", "setting": "[7]; Stage 2 (34 dosed)", "result": "12 (35)^ n, %"}, {"measurement": "Difficulty falling asleep, Mild", "setting": "[7]; Stage 2 (34 dosed)", "result": "1 (3)^ n, %"}, {"measurement": "Eye infection, Mild", "setting": "[7]; Stage 2 (34 dosed)", "result": "1 (3)^ n, %"}, {"measurement": "Flatulence, Mild", "setting": "[7]; Stage 2 (34 dosed)", "result": "1 (3)^ n, %"}, {"measurement": "Nausea, Mild", "setting": "[7]; Stage 2 (34 dosed)", "result": "18 (52)^ n, %"}, {"measurement": "Urinary retention, Mild", "setting": "[7]; Stage 2 (34 dosed)", "result": "1 (3)^ n, %"}, {"measurement": "Urinary tract infection, Mild", "setting": "[7]; Stage 2 (34 dosed)", "result": "1 (3)^ n, %"}, {"measurement": "Worsening hemorrhoid, Mild", "setting": "[7]; Stage 2 (34 dosed)", "result": "1 (3)^ n, %"}, {"measurement": "patients with worsening of hemorrhoids", "setting": "[7]; all dosed, 1/44", "result": 2.2, "unit": "%"}, {"measurement": "patients with worsening of acid reflux", "setting": "[7]; all dosed, 2/44", "result": 4.5, "unit": "%"}, {"measurement": "patients with flatulence", "setting": "[7]; all dosed, 3/44", "result": 6.8, "unit": "%"}, {"measurement": "patients with vomiting", "setting": "[7]; all dosed, 3/44", "result": 6.8, "unit": "%"}, {"measurement": "patients with dizziness", "setting": "[7]; all dosed, 8/44", "result": 18, "unit": "%"}, {"measurement": "patients with abdominal pain", "setting": "[7]; all dosed, 11/44", "result": 32, "unit": "%"}, {"measurement": "Serious adverse event (SAE)", "setting": "[7]; withdrawal period, considered unrelated to study medication", "result": "One patient had a lower GI bleed"}, {"measurement": "effect on circadian rhythm of skin temperature", "setting": "[8]", "result": "significant positive impact; also recorded: improved all markers of healthy circadian function"}, {"measurement": "effect on circadian rhythm of skin temperature", "setting": "[8]; listed as Aminosterol", "result": "improved all markers of healthy circadian function"}, {"measurement": "improvement of CFI during wash-out", "setting": "[8]; wash-out period, p=0.004", "result": "persisted"}, {"measurement": "improvement of IS during wash-out", "setting": "[8]; wash-out period, p=0.008", "result": "persisted"}, {"measurement": "systemic absorption following oral administration", "setting": "[9]", "result": "negligible"}, {"measurement": "oral bio-availability (estimated)", "setting": "[4]", "result": "less than 0.3%"}, {"measurement": "oral bio-availability (estimated)", "setting": "[4]; listed as aminosterol", "result": "< 0.3", "unit": "%"}, {"measurement": "systemic absorption following oral administration", "setting": "[4]; listed as aminosterol", "result": "negligible"}, {"measurement": "systemic absorption following oral administration", "setting": "[10]", "result": "negligible"}, {"measurement": "total sleep time vs baseline", "setting": "[11]", "result": "consistently higher than baseline"}, {"measurement": "CSBM (mean, SD)", "setting": "[12]; [13]", "result": "3.8 CSBM/week and 3.8 (2.4) CSBM/week"}, {"measurement": "Suppository use / rescue medication (mean, SD)", "setting": "[12]; [13]", "result": "0.3 /week and 0.3 (0.67) /week"}, {"measurement": "CSBM (mean, SD)", "setting": "[12]; [14]", "result": 3.8, "unit": "CSBM/week"}, {"measurement": "SBM (mean, SD)", "setting": "[12]; [14]", "result": 4.5}, {"measurement": "Suppository use / rescue medication (mean, SD)", "setting": "[12]; [14]", "result": "0.3 /week"}, {"measurement": "prokinetic dose (mean)", "setting": "[12]; patients with baseline ≥1 CSBM/week", "result": 120, "unit": "mg"}]}]}
